In the supplement of paper PMC10307832:

Key:
Test in all cases: relative viability (nuclei count vs DMSO), 5 days (fraction); higher = more cells survive
A-427 = test system: A-427
Outline: (§1)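 Relative viability is defined as nuclei in treated wells over nuclei in vehicle wells. Duplicate plates were run and medians reported. Lung cancer cell lines in 1536-well plates were dosed by pin tool one day after seeding, with one drug or with a fixed anchor-drug dose plus five library-drug doses (not always all listed) in √10 steps, and nuclei were counted after 5 days.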

HCC-15 = test system: HCC-15
Outline: as §1

HCC-78 = test system: HCC-78
Outline: as §1

HOP-62 = test system: HOP-62
Outline: as §1

LC-2-ad = test system: LC-2-ad
Outline: as §1

LXF-289 = test system: LXF-289
Outline: as §1

NCI-H1734 = test system: NCI-H1734
Outline: as §1

NCI-H1755 = test system: NCI-H1755
Outline: as §1

NCI-H1792 = test system: NCI-H1792
Outline: as §1

NCI-H1915 = test system: NCI-H1915
Outline: as §1

NCI-H1975 = test system: NCI-H1975
Outline: as §1

NCI-H2126 = test system: NCI-H2126
Outline: as §1

NCI-H2228 = test system: NCI-H2228
Outline: as §1

NCI-H2342 = test system: NCI-H2342
Outline: as §1

NCI-H2347 = test system: NCI-H2347
Outline: as §1

NCI-H358 = test system: NCI-H358
Outline: as §1

NCI-H522 = test system: NCI-H522
Outline: as §1

NCI-H647 = test system: NCI-H647
Outline: as §1

PC-3 [JPC-3] = test system: PC-3 [JPC-3]
Outline: as §1

RERF-LC-KJ = test system: RERF-LC-KJ
Outline: as §1

SK-LU-1 = test system: SK-LU-1
Outline: as §1

SW 1573 = test system: SW 1573
Outline: as §1

Nc1ccn([C@@H]2O[C@H](CO)[C@@H](O)[C@@H]2O)c(=O)n1 [Cytarabine] + Nc1nc2[nH]cc(CCc3ccc(C(=O)N[C@@H](CCC(=O)O)C(=O)O)cc3)c2c(=O)[nH]1 [Pemetrexed] (partner 0.2 µM) was tested. Which relative viability (A-427; first compound 0.005 µM) did it give?
Its relative viability is 0.745.

And the relative viability (A-427; first compound 0.01581 µM)?
The relative viability was 0.509.

What about the relative viability (A-427; first compound 0.05 µM) of the same compound?
Its relative viability is 0.332.

What about the relative viability (A-427; first compound 0.1581 µM) of the same compound?
Its relative viability is 0.27.

What about the relative viability (A-427; first compound 0.5 µM) of the same compound?
Its relative viability is 0.253.

What about the relative viability (HCC-15; first compound 0.005 µM) of the same compound?
The relative viability was 0.249.

And the relative viability (HCC-15; first compound 0.01581 µM)?
The relative viability was 0.215.

And the relative viability (HCC-15; first compound 0.05 µM)?
The relative viability was 0.226.

And the relative viability (HCC-15; first compound 0.1581 µM)?
Its relative viability is 0.225.

And the relative viability (HCC-15; first compound 0.5 µM)?
Its relative viability is 0.222.

What about the relative viability (HCC-78; first compound 0.005 µM) of the same compound?
The relative viability was 0.824.

What about the relative viability (HCC-78; first compound 0.01581 µM) of the same compound?
Its relative viability is 0.918.

And the relative viability (HCC-78; first compound 0.05 µM)?
Its relative viability is 0.889.

What about the relative viability (HCC-78; first compound 0.1581 µM) of the same compound?
Its relative viability is 0.936.

And the relative viability (HCC-78; first compound 0.5 µM)?
The relative viability was 0.894.

What about the relative viability (HOP-62; first compound 0.005 µM) of the same compound?
Its relative viability is 0.388.

What about the relative viability (HOP-62; first compound 0.01581 µM) of the same compound?
The relative viability was 0.411.

And the relative viability (HOP-62; first compound 0.05 µM)?
Its relative viability is 0.309.

What about the relative viability (HOP-62; first compound 0.1581 µM) of the same compound?
Its relative viability is 0.113.

And the relative viability (HOP-62; first compound 0.5 µM)?
The relative viability was 0.072.

And the relative viability (LC-2-ad; first compound 0.005 µM)?
The relative viability was 0.28.

What about the relative viability (LC-2-ad; first compound 0.01581 µM) of the same compound?
The relative viability was 0.31.

And the relative viability (LC-2-ad; first compound 0.05 µM)?
The relative viability was 0.286.

What about the relative viability (LC-2-ad; first compound 0.1581 µM) of the same compound?
The relative viability was 0.268.

And the relative viability (LC-2-ad; first compound 0.5 µM)?
The relative viability was 0.265.

And the relative viability (LXF-289; first compound 0.005 µM)?
Its relative viability is 0.729.

What about the relative viability (LXF-289; first compound 0.01581 µM) of the same compound?
The relative viability was 0.864.

What about the relative viability (LXF-289; first compound 0.05 µM) of the same compound?
Its relative viability is 0.808.

What about the relative viability (LXF-289; first compound 0.1581 µM) of the same compound?
Its relative viability is 0.36.

What about the relative viability (LXF-289; first compound 0.5 µM) of the same compound?
Its relative viability is 0.268.

And the relative viability (NCI-H1734; first compound 0.005 µM)?
The relative viability was 0.501.

What about the relative viability (NCI-H1734; first compound 0.01581 µM) of the same compound?
Its relative viability is 0.236.

What about the relative viability (NCI-H1734; first compound 0.05 µM) of the same compound?
The relative viability was 0.193.

And the relative viability (NCI-H1734; first compound 0.1581 µM)?
Its relative viability is 0.117.

And the relative viability (NCI-H1734; first compound 0.5 µM)?
The relative viability was 0.103.

What about the relative viability (NCI-H1755; first compound 0.005 µM) of the same compound?
Its relative viability is 0.472.

And the relative viability (NCI-H1755; first compound 0.01581 µM)?
Its relative viability is 0.453.

What about the relative viability (NCI-H1755; first compound 0.05 µM) of the same compound?
Its relative viability is 0.381.

What about the relative viability (NCI-H1755; first compound 0.1581 µM) of the same compound?
The relative viability was 0.336.

And the relative viability (NCI-H1755; first compound 0.5 µM)?
The relative viability was 0.351.

And the relative viability (NCI-H1792; first compound 0.01581 µM)?
The relative viability was 0.672.

What about the relative viability (NCI-H1792; first compound 0.05 µM) of the same compound?
The relative viability was 0.751.

And the relative viability (NCI-H1792; first compound 0.1581 µM)?
The relative viability was 0.182.

And the relative viability (NCI-H1792; first compound 0.5 µM)?
The relative viability was 0.115.

What about the relative viability (NCI-H1915; first compound 0.005 µM) of the same compound?
The relative viability was 0.506.

What about the relative viability (NCI-H1915; first compound 0.01581 µM) of the same compound?
Its relative viability is 0.563.

And the relative viability (NCI-H1915; first compound 0.05 µM)?
The relative viability was 0.54.

And the relative viability (NCI-H1915; first compound 0.1581 µM)?
The relative viability was 0.45.

What about the relative viability (NCI-H1915; first compound 0.5 µM) of the same compound?
The relative viability was 0.333.

What about the relative viability (NCI-H1975; first compound 0.005 µM) of the same compound?
Its relative viability is 0.255.

What about the relative viability (NCI-H1975; first compound 0.01581 µM) of the same compound?
Its relative viability is 0.287.

And the relative viability (NCI-H1975; first compound 0.05 µM)?
Its relative viability is 0.297.

What about the relative viability (NCI-H1975; first compound 0.1581 µM) of the same compound?
Its relative viability is 0.28.

And the relative viability (NCI-H1975; first compound 0.5 µM)?
The relative viability was 0.266.

What about the relative viability (NCI-H2126; first compound 0.005 µM) of the same compound?
The relative viability was 0.76.

What about the relative viability (NCI-H2126; first compound 0.01581 µM) of the same compound?
Its relative viability is 0.775.

What about the relative viability (NCI-H2126; first compound 0.05 µM) of the same compound?
The relative viability was 0.525.

And the relative viability (NCI-H2126; first compound 0.1581 µM)?
The relative viability was 0.549.

And the relative viability (NCI-H2126; first compound 0.5 µM)?
Its relative viability is 0.46.

And the relative viability (NCI-H2228; first compound 0.005 µM)?
The relative viability was 0.32.

What about the relative viability (NCI-H2228; first compound 0.01581 µM) of the same compound?
The relative viability was 0.275.

What about the relative viability (NCI-H2228; first compound 0.05 µM) of the same compound?
The relative viability was 0.134.

And the relative viability (NCI-H2228; first compound 0.1581 µM)?
Its relative viability is 0.0993.

What about the relative viability (NCI-H2228; first compound 0.5 µM) of the same compound?
Its relative viability is 0.133.

And the relative viability (NCI-H2342; first compound 0.005 µM)?
The relative viability was 0.667.

What about the relative viability (NCI-H2342; first compound 0.01581 µM) of the same compound?
Its relative viability is 0.707.

And the relative viability (NCI-H2342; first compound 0.05 µM)?
The relative viability was 0.638.

What about the relative viability (NCI-H2342; first compound 0.1581 µM) of the same compound?
The relative viability was 0.504.

What about the relative viability (NCI-H2342; first compound 0.5 µM) of the same compound?
The relative viability was 0.353.

And the relative viability (NCI-H2347; first compound 0.005 µM)?
Its relative viability is 0.392.

What about the relative viability (NCI-H2347; first compound 0.01581 µM) of the same compound?
The relative viability was 0.522.

What about the relative viability (NCI-H2347; first compound 0.05 µM) of the same compound?
Its relative viability is 0.439.

What about the relative viability (NCI-H2347; first compound 0.1581 µM) of the same compound?
Its relative viability is 0.44.

And the relative viability (NCI-H2347; first compound 0.5 µM)?
The relative viability was 0.391.

And the relative viability (NCI-H358; first compound 0.005 µM)?
The relative viability was 0.195.

And the relative viability (NCI-H358; first compound 0.01581 µM)?
Its relative viability is 0.188.

And the relative viability (NCI-H358; first compound 0.05 µM)?
The relative viability was 0.185.

And the relative viability (NCI-H358; first compound 0.1581 µM)?
The relative viability was 0.168.

And the relative viability (NCI-H358; first compound 0.5 µM)?
Its relative viability is 0.116.

And the relative viability (NCI-H522; first compound 0.005 µM)?
The relative viability was 0.942.

And the relative viability (NCI-H522; first compound 0.01581 µM)?
Its relative viability is 0.846.

What about the relative viability (NCI-H522; first compound 0.05 µM) of the same compound?
The relative viability was 0.631.

And the relative viability (NCI-H522; first compound 0.1581 µM)?
The relative viability was 0.578.

And the relative viability (NCI-H522; first compound 0.5 µM)?
Its relative viability is 0.455.

And the relative viability (NCI-H647; first compound 0.005 µM)?
The relative viability was 0.185.

And the relative viability (NCI-H647; first compound 0.01581 µM)?
The relative viability was 0.174.

What about the relative viability (NCI-H647; first compound 0.05 µM) of the same compound?
Its relative viability is 0.0984.

What about the relative viability (NCI-H647; first compound 0.1581 µM) of the same compound?
Its relative viability is 0.0797.

And the relative viability (NCI-H647; first compound 0.5 µM)?
The relative viability was 0.0683.

What about the relative viability (PC-3 [JPC-3]; first compound 0.005 µM) of the same compound?
The relative viability was 1.

What about the relative viability (PC-3 [JPC-3]; first compound 0.01581 µM) of the same compound?
The relative viability was 0.914.

And the relative viability (PC-3 [JPC-3]; first compound 0.05 µM)?
Its relative viability is 0.616.

And the relative viability (PC-3 [JPC-3]; first compound 0.1581 µM)?
Its relative viability is 0.557.

And the relative viability (PC-3 [JPC-3]; first compound 0.5 µM)?
The relative viability was 0.716.

And the relative viability (RERF-LC-KJ; first compound 0.005 µM)?
The relative viability was 0.453.

And the relative viability (RERF-LC-KJ; first compound 0.01581 µM)?
The relative viability was 0.502.

And the relative viability (RERF-LC-KJ; first compound 0.05 µM)?
The relative viability was 0.381.

And the relative viability (RERF-LC-KJ; first compound 0.1581 µM)?
The relative viability was 0.34.

What about the relative viability (RERF-LC-KJ; first compound 0.5 µM) of the same compound?
Its relative viability is 0.249.

And the relative viability (SK-LU-1; first compound 0.005 µM)?
Its relative viability is 0.827.

What about the relative viability (SK-LU-1; first compound 0.01581 µM) of the same compound?
Its relative viability is 0.732.

What about the relative viability (SK-LU-1; first compound 0.05 µM) of the same compound?
The relative viability was 0.642.

And the relative viability (SK-LU-1; first compound 0.1581 µM)?
The relative viability was 0.377.

What about the relative viability (SK-LU-1; first compound 0.5 µM) of the same compound?
Its relative viability is 0.331.

What about the relative viability (SW 1573; first compound 0.005 µM) of the same compound?
The relative viability was 0.675.

What about the relative viability (SW 1573; first compound 0.01581 µM) of the same compound?
Its relative viability is 0.576.

And the relative viability (SW 1573; first compound 0.05 µM)?
The relative viability was 0.386.

And the relative viability (SW 1573; first compound 0.1581 µM)?
Its relative viability is 0.107.

And the relative viability (SW 1573; first compound 0.5 µM)?
Its relative viability is 0.0809.
